What is called IC50 is the concentration needed to halve the response being measured. Broadly, the Ki is a dissociation constant, usually derived from enzyme kinetics or from competition with a known ligand. A low value points to tighter binding.

This note sets out measurements from ChEMBL document CHEMBL4699626, “Potential α-glucosidase inhibitor from Hylotelephium erythrostictum” (Bioorg Med Chem Lett, 2020).

Test [1] in a line: Inhibition of alpha-glucosidase (unknown origin) using p-nitrophenyl-alpha-D-glucopyranoside as substrate.
Test [2] is filed under the species Homo sapiens. Briefly: Competitive inhibition of alpha-glucosidase (unknown origin) assessed as increase in Km with constant Vmax by Lineweaver-Burk plot analysis.
The species named for test [3] is Homo sapiens. Briefly: Potency index, ratio of Acarbose IC50 to test compound IC50 for alpha-glucosidase (unknown origin).
A short description of test [4]: Competitive inhibition of alpha-glucosidase (unknown origin) by Dixon plot analysis. Further details: species or system Homo sapiens.
The nature of test [5]: Inhibition of Saccharomyces cerevisiae alpha-glucosidase assessed as decrease in release of p-nitrophenol using pNPG as substrate preincubated for 2 hrs followed by substrate addition by spectrophotometric method.
Test [6] is described as follows: Inhibition of alpha-glucosidase (unknown origin). Further details: species or system Homo sapiens.

Calls of active or inactive are those of the source. The rule behind the calls is not given here.

As for `COc1cc(OC)c2c(c1)OC(OC)(c1ccc(OC)c(OC)c1)C2=O` (centres undefined), in test [1], the IC50 entry is “Not Active”.
Take `COC1(c2ccc(O)c(O)c2)Oc2cc(O)cc(O)c2C1=O` (centres undefined): the inhibition result in test [2] was “Active”. In addition, in test [1] (read-out: IC50), the IC50 was 1.8 µM. In addition, the Ratio IC50 in test [3] is 457. The same molecule had a Ki in test [4] of 0.709 µM.
For the molecule `O=c1cc(-c2ccc(O)cc2)oc2cc(O)cc(O)c12` [APIGENIN], the IC50 in test [5] worked out at 365 µM.
For `COc1ccc(-c2oc3cc(O)cc(O)c3c(=O)c2O)cc1` [KAEMPFERIDE], the IC50 in test [6] came to 647 µM.
For `COc1cc(O)c2c(=O)c(O)c(-c3ccc(O)cc3)oc2c1` [RHAMNOCITRIN], in test [1] (read-out: IC50), the IC50 is 731 µM.
On the same count and under the same terms, to `O=c1c(O)c(-c2ccc(O)cc2)oc2cc(O)cc(O)c12` [KAEMPFEROL] belongs 420 µM.
